This is an account of results in PMC5590943, “Pharmacological characterisation of S 47445, a novel positive allosteric modulator of AMPA receptors” (PLoS ONE, 2017).

Each structure is given as a SMILES string. Several values for one entry are separate records, joined by “and”; a condition that tells them apart may be missing. Equal values may be shown once.

The target of data set [1] is AMPA/Kainate chimera GluA1(K2NTD) (Homo sapiens, UniProt P42261+Q13002). In words: Glutamate-evoked current in oocytes expressing AMPA/Kainate chimera. It is filed as cell-based. The protocol:
(§1) Compounds were tested by bath application.

Details of data set [2]: method as in previous kinetic experiments (reference not given). Particulars: 0.3 mg/kg oral, rats; ref previous kinetic experiments (reference not given); read-out: Cerebral Cmax; cited from earlier work.
Data set [3] has as its target T1, human AMPA receptor GluA1i/2i (Homo sapiens, UniProt P42261+P42262, Q607R).
T1 construct: host or cells: Xenopus laevis oocytes
In words: Glutamate-evoked currents, oocytes expressing recombinant human AMPA receptors. It is filed as cell-based. The protocol: as §1

For data set [4], the target named is T2, human AMPA receptor GluA4i (GluA4 flip) (Homo sapiens, UniProt P48058).
T2 construct: host or cells: Xenopus laevis oocytes
Described as above. It is filed as cell-based. As for the experimental part: as §1

In data set [5] the target is T3, human AMPA receptor GluA4o/2o (Homo sapiens, UniProt P42262+P48058, A778Q/D799G/G801D/K798G/P767A/P797S/Q607R/S776N/S800G/T766N/V780L).
T3 construct: host or cells: Xenopus laevis oocytes
T3 sequence (P48058 21-902 T766N/P767A/S776N/A778Q/V780L/P797S/K798G/D799G/S800G/G801D): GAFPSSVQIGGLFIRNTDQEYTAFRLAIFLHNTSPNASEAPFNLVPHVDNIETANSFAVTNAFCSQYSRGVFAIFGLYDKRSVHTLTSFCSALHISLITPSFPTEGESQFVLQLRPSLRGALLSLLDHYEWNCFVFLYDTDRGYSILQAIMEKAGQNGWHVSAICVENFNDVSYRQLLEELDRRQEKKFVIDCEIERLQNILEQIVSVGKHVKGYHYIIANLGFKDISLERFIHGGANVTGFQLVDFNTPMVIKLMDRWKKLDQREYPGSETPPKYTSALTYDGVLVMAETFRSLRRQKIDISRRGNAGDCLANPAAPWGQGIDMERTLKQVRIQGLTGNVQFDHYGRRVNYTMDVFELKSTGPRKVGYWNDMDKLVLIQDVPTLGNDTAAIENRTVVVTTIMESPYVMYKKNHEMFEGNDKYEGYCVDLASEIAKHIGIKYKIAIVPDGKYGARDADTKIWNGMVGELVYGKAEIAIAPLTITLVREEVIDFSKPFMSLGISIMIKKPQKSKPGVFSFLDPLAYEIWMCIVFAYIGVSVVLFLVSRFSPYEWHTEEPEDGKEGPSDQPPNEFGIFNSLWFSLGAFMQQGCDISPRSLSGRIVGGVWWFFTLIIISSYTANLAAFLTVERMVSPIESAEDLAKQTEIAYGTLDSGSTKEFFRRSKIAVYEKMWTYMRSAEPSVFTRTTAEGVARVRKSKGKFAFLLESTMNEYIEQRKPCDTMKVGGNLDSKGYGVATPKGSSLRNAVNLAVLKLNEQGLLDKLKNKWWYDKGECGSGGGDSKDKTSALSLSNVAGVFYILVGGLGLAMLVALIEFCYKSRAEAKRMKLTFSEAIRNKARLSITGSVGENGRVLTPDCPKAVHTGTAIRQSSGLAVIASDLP
T3 sequence (P42262 25-883 Q607R): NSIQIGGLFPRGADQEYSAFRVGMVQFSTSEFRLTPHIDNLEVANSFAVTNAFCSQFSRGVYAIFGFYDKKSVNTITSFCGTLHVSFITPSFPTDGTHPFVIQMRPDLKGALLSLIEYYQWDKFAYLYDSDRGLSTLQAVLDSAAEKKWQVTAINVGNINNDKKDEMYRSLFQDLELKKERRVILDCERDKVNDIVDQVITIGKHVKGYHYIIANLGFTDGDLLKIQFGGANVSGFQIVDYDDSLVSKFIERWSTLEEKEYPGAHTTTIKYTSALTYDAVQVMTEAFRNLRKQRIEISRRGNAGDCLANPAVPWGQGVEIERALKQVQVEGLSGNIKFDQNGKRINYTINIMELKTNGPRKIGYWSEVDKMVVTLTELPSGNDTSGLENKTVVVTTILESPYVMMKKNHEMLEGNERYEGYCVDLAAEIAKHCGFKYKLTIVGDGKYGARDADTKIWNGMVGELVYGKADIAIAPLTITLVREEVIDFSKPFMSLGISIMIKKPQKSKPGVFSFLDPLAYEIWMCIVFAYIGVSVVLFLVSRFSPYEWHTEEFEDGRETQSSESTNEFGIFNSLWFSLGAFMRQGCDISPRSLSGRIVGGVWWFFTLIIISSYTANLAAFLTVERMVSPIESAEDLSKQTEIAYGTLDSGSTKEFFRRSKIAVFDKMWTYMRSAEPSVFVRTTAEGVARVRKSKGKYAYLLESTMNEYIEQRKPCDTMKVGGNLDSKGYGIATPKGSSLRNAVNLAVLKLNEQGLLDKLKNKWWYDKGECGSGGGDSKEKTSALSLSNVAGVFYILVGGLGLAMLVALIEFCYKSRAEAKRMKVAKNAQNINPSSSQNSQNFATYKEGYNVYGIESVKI
Described as above. The class given is cell-based. As for the experimental part:
as §1

The target in data set [6] is T4, human AMPA receptor GluA4o/2i (Homo sapiens, UniProt P42262+P48058, Q607R).
T4 construct: host or cells: Xenopus laevis oocytes
T4 sequence (P48058 21-902 T766N/P767A/S776N/A778Q/V780L/P797S/K798G/D799G/S800G/G801D): as the sequence (P48058 21-902 T766N/P767A/S776N/A778Q/V780L/P797S/K798G/D799G/S800G/G801D) above
T4 sequence (P42262 25-883 isoform P42262-2 Q607R): as the sequence (P42262 25-883 Q607R) above, with N741T, A742P, N751S, L755V, S772A, G773K, G774D, G775S, D776G counted along it
The data set is described as above. The class given is cell-based. The protocol: as §1

Data set [7] addresses T5, human AMPA receptor GluA4o (GluA4 flop) (Homo sapiens, UniProt P48058, A778Q/D799G/G801D/K798G/P767A/P797S/S776N/S800G/T766N/V780L).
T5 construct: host or cells: Xenopus laevis oocytes
The data set is described as above. It is filed as cell-based. The protocol: as §1

For data set [8], the target named is T6, human AMPA receptor GluA1i (GluA1 flip) (Homo sapiens, UniProt P42261).
T6 construct: host or cells: Xenopus laevis oocytes
The data set is described as above. The class given is cell-based. The protocol: as §1

The target of data set [9] is T7, human AMPA receptor GluA4i/2o (Homo sapiens, UniProt P42262+P48058, Q607R).
T7 construct: host or cells: Xenopus laevis oocytes
The data set is described as above. It is filed as cell-based. The protocol: as §1

Another data set relates to Y (non-selective). Nature of the data set: Binding assay, [3H]NPY.
Another data set has as its system male OFA rats. In words: Novel object recognition test in rats. It is filed as in vivo, rat. The following applies: 3 administrations. The protocol:
Novel object recognition and T-maze studies were conducted respectively in male OFA rats (150–175 g, Charles River, Saint-Germain-Nuelles, France) and male C57Bl/6 mice (5.5–6.5 month-old, Charles River, Saint-Germain-Nuelles, France). Animals were housed in collective cages with continuous access to tap water and food on a 12 h light-dark cycle, in a temperature-controlled (21 ± 1°C) and ventilated room. On completion of studies subjects were euthanized by either CO2 inhalation or intraperitoneal (i.p.) lethal pentobarbital injection. The novel object recognition test was used as the primary in vivo screening assay to identify AMPA-PAMs. The T-maze task was performed using a modified continuous performance procedure previously described in mice.
S 47445 was suspended either in distilled water with Tween80® 2% for oral administration or saline with Tween80® 2% for i.p. administration. Tween80® was obtained from Sigma-Aldrich, Lyon, France. S 47445 was synthetized by Servier, Suresnes, France. […]
The novel object recognition paradigm was developed by Ennaceur and Delacour, 1988 and aimed to evaluate potential procognitive effects of drugs on a form of recognition (episodic-like) memory in the rat. […] Consequently, recognition is measured by the time spent by rats in exploring two different objects, one being familiar and the other being new.
Animals were submitted to three phases of the test. […] Each rat was placed in the arena, and the time spent actively exploring the objects was recorded. […] After 24 h, during the third phase (session of recognition), each rat was again placed in the apparatus for 3 min in the presence of one of the familiar (Fam) objects and a new (New) object, and the time spent exploring both objects was again recorded. […] The difference in duration of exploration of the two objects (New-Fam) and the sum of duration of exploration on session of recognition were determined. Statistical analysis was performed on the discrimination index calculated as (New-Fam)/(Fam+New) using a one-way ANOVA using SAS v9.2 software (SAS Institute, Cary, NC). […]

The next data set deals with male adult Wistar rats. Nature of the data set: Spontaneous locomotor activity in rats. Particulars: 10, 30 and 100 mg/kg p.o. acute; n = 9. The class given is in vivo, rat. The protocol: Locomotor activity was recorded in male adult Wistar rats (180–200 g, Janvier Labs, Le Genest Saint Isle, France) placed in cages in a soundproof keeping room (open-field). A remote surveillance appliance allowed to observe and to record animal behaviour from an adjacent room. The movie camera was connected to an automatic analysis system (videotrack software, Viewpoint, Lissieu, France). The distance covered (cm) was automatically computed for each rat. Rats were orally administered 1 h before the test with S 47445 (10, 30 and 100 mg/kg) or vehicle. Locomotor activity was recorded during 30 min divided in 3 x 10-min periods. The total covered distance over 30 min was analysed using one way (dose) ANOVA, followed in case of significance of the dose effect by Dunnett’s test (versus vehicle controls). The significance threshold was set at 5%. Analyses were performed using SAS v9.2 software (SAS Institute, Cary, NC).

The next data set deals with Kainate. In words: Binding assay, [3H]kainic acid, rat cerebral cortex membranes.
A further data set relates to Rat AMPA receptors. In words: AMPA-evoked currents, Xenopus laevis oocytes injected with rat cortex poly(A+) mRNA (two-electrode voltage clamp). The following applies: geometric mean. It is filed as cell-based. The protocol: as §1
Background: Two-electrode voltage clamp is typically applied to oocytes expressing channels or transporters.

For another data set, the target named is EGFR kinase (h) (Homo sapiens, UniProt P00533). In words: Enzyme and cell-based assay, ATP + biotinyl peptide (0.1 μM).
Chain of EGFR kinase (h) (P00533 25-1210): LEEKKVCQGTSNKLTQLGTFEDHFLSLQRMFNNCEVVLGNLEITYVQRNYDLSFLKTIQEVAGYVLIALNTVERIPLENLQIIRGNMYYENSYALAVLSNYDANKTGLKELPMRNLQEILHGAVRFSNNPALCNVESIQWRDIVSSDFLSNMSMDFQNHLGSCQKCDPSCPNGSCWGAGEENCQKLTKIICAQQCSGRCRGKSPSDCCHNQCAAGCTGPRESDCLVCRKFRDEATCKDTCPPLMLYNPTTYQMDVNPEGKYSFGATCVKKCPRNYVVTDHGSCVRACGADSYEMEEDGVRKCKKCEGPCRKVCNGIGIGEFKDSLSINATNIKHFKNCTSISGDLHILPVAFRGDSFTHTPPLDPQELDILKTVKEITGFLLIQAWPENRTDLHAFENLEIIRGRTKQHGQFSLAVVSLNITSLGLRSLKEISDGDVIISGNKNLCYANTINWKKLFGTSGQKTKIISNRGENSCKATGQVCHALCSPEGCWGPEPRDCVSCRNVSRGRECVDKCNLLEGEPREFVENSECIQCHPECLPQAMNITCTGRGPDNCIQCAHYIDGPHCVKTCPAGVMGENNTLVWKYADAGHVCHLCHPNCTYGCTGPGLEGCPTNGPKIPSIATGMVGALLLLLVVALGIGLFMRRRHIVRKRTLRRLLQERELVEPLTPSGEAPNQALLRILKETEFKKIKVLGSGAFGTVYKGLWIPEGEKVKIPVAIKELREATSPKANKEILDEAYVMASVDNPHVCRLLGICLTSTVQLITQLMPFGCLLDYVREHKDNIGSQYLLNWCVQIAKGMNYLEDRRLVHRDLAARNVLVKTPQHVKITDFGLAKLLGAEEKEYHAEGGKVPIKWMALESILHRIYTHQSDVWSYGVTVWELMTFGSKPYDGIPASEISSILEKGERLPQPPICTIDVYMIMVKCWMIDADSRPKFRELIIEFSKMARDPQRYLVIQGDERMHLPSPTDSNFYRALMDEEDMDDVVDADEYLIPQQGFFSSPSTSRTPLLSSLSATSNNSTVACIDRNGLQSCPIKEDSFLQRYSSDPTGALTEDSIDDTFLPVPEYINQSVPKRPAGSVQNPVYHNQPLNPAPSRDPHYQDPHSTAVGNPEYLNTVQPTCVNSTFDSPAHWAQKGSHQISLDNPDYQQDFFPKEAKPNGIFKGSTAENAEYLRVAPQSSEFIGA

In the case of `O=C1c2cc3nnn(CCc4cccc(F)c4)c(=O)c3cc2OCN1C1CC1` [S 47445, 8-cyclopropyl-3-[2-(3-fluorophenyl)ethyl]-7,8-dihydro-3H-[1,3]oxazino[6,5-g][1,2,3]benzotriazine-4,9-dione], the EC50 – broadly, the concentration needed to bring the measured effect to its halfway point – in data set [1] is 4.2 µM; in data set [3], 2.6 µM; in [4] it was 3 µM; in data set [5], 2.9 µM; in data set [6] it was 3.8 µM; in [7], 0.7 µM. Moreover, the EC50 in data set [8] was 5.4 µM; in [9], 3.3 µM; with Rat AMPA receptors (potentiation of 10 μM AMPA-evoked current), 6.5 µM and 6.54 µM. Also, the maximum concentration (Cmax) (commonly the highest concentration seen after dosing) in data set [2] is 100 to 200 nM. For the same molecule, the “% Inhibition of control specific binding” value with Y (non-selective) (S 47445 1.0E-05 M) is -6%; in the data set with Y (non-selective) (S 47445 1.0E-07 M), -4%; with Kainate (S 47445 1.0E-05 M), 25%; in the data set on Kainate (S 47445 1.0E-07 M), 7%; on EGFR kinase (h) (S 47445 1.0E-05 M) it was 0%; at EGFR kinase (h) (S 47445 1.0E-07 M) it was -8%. Also, the “Discrimination index versus vehicle” value in the data set on male OFA rats (0.3 mg/kg p.o., p ≤ 0.01) was “significantly increased the discrimination index”; with male OFA rats (1 mg/kg p.o., tendency of increase), “did not reach statistical significance”; in the data set with male OFA rats (3 mg/kg p.o., p ≤ 0.05), “significantly increased the discrimination index”. The “Total distance of spontaneous locomotor activity” value in the data set with male adult Wistar rats was “did not significantly modify”. Also, the Ki (in general, a dissociation constant, usually derived from enzyme kinetics or from competition with a known ligand) on Kainate (read-out: Ki, glutamate binding site, n = 2) is above 10 µM. The EC2X with Rat AMPA receptors (concentration giving a two-fold increase in current amplitude) worked out at 1.53 µM.
